Where two headings read alike, the source gives them in different places.
How the values were obtained:
Colo205 cells = experiment: Analysis of cell proliferation and viability; format: cell-based; conditions: Homo sapiens
Procedure: Compounds were screened for their ability to inhibit cell proliferation and their effects on cell viability using Colo205 cells obtained from ECACC and using the assay shown below.
Colo205 cells were seeded in 96 well plates and serially diluted compound was added to the wells in duplicate. Control groups included untreated cells, the compound diluent (0.1% DMSO alone) and culture medium without cells. The cells were then incubated for 72 or 96 hrs at 37 C in an atmosphere of 5% CO2/95% humidity.
To measure proliferation, 3 h prior to the end of the experiment 0.5 μCi of 3H thymidine was added to each well. Cells were then harvested and the incorporated radioactivity counted on a Wallac microplate beta-counter. Cell viability was assessed using Promega CellTiter 96AQ to measure MTS conversion. Dose response curves were calculated using either Prism 3.0 (GraphPad) or SoftMax Pro 4.3.1 LS (Molecular Devices) software.

Aurora-1 (Aurora B) = Aurora-1 (Aurora B) (Homo sapiens, UniProt Q96GD4); experiment: Aurora-1 (Aurora B) inhibition assay (radiometric); format: biochemical; conditions: 800 μM ATP, 25° C.; read-out: Ki, Aurora-1 (Aurora B) radiometric assay (sentence prints Aurora A)
Procedure: An assay buffer solution was prepared which consisted of 25 mM HEPES (pH 7.5), 10 mM MgCl2, 0.1% BSA and 10% glycerol. A 22 nM Aurora-B solution, also containing 1.7 mM DTT and 1.5 mM Kemptide (LRRASLG), was prepared in assay buffer. To 22 μL of the Aurora-B solution, in a 96-well plate, was added 2 μl of a compound stock solution in DMSO and the mixture allowed to equilibrate for 10 minutes at 25° C. The enzyme reaction was initiated by the addition of 16 μl stock [γ-^33P]-ATP solution ([…]) prepared in assay buffer, to a final assay concentration of 800 μM. The reaction was stopped after 3 hours by the addition of 16 μL 500 mM phosphoric acid and the levels of ^33P incorporation into the peptide substrate were determined by the following method.
A phosphocellulose 96-well plate (Millipore, Cat no. MAPHNOB50) was pre-treated with 100 μL of a 100 mM phosphoric acid prior to the addition of the enzyme reaction mixture (40 μL). […] Levels of non-enzyme catalyzed background radioactivity were determined by adding 16 μL of the 500 mM phosphoric acid to control wells, containing all assay components (which acts to denature the enzyme), prior to the addition of the [γ-^33P]-ATP solution. Levels of enzyme catalyzed ^33P incorporation were calculated by subtracting mean background counts from those measured at each inhibitor concentration. […]

Aurora-2 (Aurora A) = target: T1, Aurora-2 (Aurora A) (Homo sapiens, UniProt O14965); experiment: Aurora-2 (Aurora A) inhibition assay, coupled enzyme; format: biochemical; conditions: 400 μM ATP, 30° C.
T1 sequence (O14965 1-403): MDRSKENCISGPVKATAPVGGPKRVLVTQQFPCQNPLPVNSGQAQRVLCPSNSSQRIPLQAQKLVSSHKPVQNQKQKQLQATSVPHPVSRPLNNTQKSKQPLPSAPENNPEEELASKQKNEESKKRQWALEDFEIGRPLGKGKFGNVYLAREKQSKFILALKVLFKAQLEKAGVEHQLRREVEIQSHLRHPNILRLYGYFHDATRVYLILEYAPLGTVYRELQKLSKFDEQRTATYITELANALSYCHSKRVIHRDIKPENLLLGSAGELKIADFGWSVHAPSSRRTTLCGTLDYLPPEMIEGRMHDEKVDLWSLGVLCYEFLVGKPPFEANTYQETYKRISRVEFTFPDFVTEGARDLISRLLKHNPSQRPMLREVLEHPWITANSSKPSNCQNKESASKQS
Procedure: Compounds were screened for their ability to inhibit Aurora-2 using a standard coupled enzyme assay (Fox et al., Protein Sci., (1998) 7, 2249). Assays were carried out in a mixture of 100 mM Hepes (pH7.5), 10 mM MgCl2, 1 mM DTT, 25 mM NaCl, 2.5 mM phosphoenolpyruvate, 300 μM NADH, 30 μg/ml pyruvate kinase and 10 μg/ml lactate dehydrogenase. Final substrate concentrations in the assay were 400 μM ATP (Sigma Chemicals) and 570 μM peptide (Kemptide, American Peptide, Sunnyvale, Calif.). Assays were carried out at 30° C. and in the presence of 40 nM Aurora-2.
An assay stock buffer solution was prepared containing all of the reagents listed above, with the exception of Aurora-2 and the test compound of interest. 55 μl of the stock solution was placed in a 96 well plate followed by addition of 2 μl of DMSO stock containing serial dilutions of the test compound (typically starting from a final concentration of 7.5 μM). The plate was preincubated for 10 minutes at 30° C. and the reaction initiated by addition of 10 μl of Aurora-2. Initial reaction rates were determined with a Molecular Devices SpectraMax Plus plate reader over a 10 minute time course. IC50 and Ki data were calculated from non-linear regression analysis using the Prism software package (GraphPad Prism version 3.0cx for Macintosh, GraphPad Software, San Diego Calif., USA).

[1] = target: T2, T315I mutant of human Abl (Homo sapiens, UniProt P00519, T315I); experiment: Mutant Abl kinase (T315I) activity inhibition assay; format: biochemical; conditions: at Upstate Cell Signaling Solutions
T2 construct: purchased Upstate Cell Signaling Solutions (Dundee, UK), assay run at the vendor
Procedure: Compounds were screened for their ability to inhibit the T315I mutant form of human Abl at Upstate Cell Signaling Solutions (Dundee, UK). In a final reaction volume of 25 μl, the T315I mutant of human Abl (5-10 mU) was incubated with 8 mM MOPS pH 7.0, 0.2 mM EDTA, 50 μM EAIYAAPFAKKK, 10 mM Mg Acetate, [γ-^33P-ATP](specific activity approx. 500 cpm/pmol, […] final assay concentration) and the test compound of interest at final concentrations over the range […]. The reaction was initiated by the addition of the MgATP mix. After incubation for 40 minutes at room temperature, the reaction was stopped by the addition of 5 μl of a 3% phosphoric acid solution. 10 μl of the reaction was then spotted onto a P30 filtermat and washed three times for 5 minutes in 75 mM phosphoric acid and once in methanol prior to drying and scintillation counting. […]

[2] = COLO 205, 72 hours, read-out: IC50 values after 72 hours
[3] = COLO 205, 96 hours, read-out: IC50 values after 96 hours

Aurora-1 (Aurora B), sequence (Q96GD4 whole entry): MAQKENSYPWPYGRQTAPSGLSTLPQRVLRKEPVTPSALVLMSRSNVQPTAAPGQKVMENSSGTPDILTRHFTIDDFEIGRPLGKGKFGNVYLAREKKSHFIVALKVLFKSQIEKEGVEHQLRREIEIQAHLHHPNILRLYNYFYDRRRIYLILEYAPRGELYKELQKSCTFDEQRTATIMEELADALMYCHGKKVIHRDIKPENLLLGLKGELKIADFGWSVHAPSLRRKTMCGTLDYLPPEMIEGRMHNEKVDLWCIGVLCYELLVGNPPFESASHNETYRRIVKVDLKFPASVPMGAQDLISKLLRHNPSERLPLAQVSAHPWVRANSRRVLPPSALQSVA

IC50 (Colo205 cells; [2]) [nM] | Structure (SMILES) | other results
50 to 100 | Cc1cc(Nc2cc(N3CCN(C4CCCCC4)CC3)nc(Sc3cc(F)c4nc(C)ccc4c3)n2)[nH]n1 [Compound I-1] | 
50 to 100 | Cc1cc(Nc2cc(N3CCN(C(C)(C)CF)CC3)nc(Sc3ccc4c(c3)CN(CC(F)(F)F)C4=O)n2)[nH]n1 [Compound I-2] | 
< 50 | Cc1cc(Nc2cc(N3CCN(C4CCCCC4)CC3)nc(Sc3ccc4nc(C(F)(F)F)n(C)c4c3)n2)[nH]n1 [Compound I-3] | IC50 (Colo205 cells; [3]): < 50 nM
50 to 100 | Cc1cc(Nc2cc(N3CCN(C4CC4)CC3)nc(Sc3ccc4nc(C(F)(F)F)[nH]c4c3)n2)[nH]n1 [Compound I-4] | 
< 50 | Cc1cc(Nc2cc(N3CCN(C4CC4)CC3)nc(Sc3ccc4nc(CC(F)(F)F)n(C)c4c3)n2)[nH]n1 [Compound I-5] | 
< 50 | Cc1cc(Nc2cc(N3CCN(C(C)(C)CF)CC3)nc(Sc3ccc4nc(CC(F)(F)F)n(C)c4c3)n2)[nH]n1 [Compound I-7] | 
< 50 | Cc1cc(Nc2cc(N3CCN(C4CCCCC4)CC3)nc(Sc3ccc4nc(C(F)(F)F)[nH]c4c3)n2)[nH]n1 [Compound I-8] | 
 | Cc1cc(Nc2cc(N3CCN(CC(F)(F)F)CC3)nc(Sc3ccc4nc(C(F)(F)F)[nH]c4c3)n2)[nH]n1 [Compound I-9] | Ki (Aurora-1 (Aurora B)): 20 to 50 nM; Ki (Aurora-2 (Aurora A)): ≤ 1 nM
50 to 100 | Cc1cc(Nc2cc(N3CCN(C4CC4)CC3)nc(Sc3ccc4nc(C(F)(F)F)n(C)c4c3)n2)[nH]n1 [Compound I-10] | IC50 (Colo205 cells; [3]): < 50 nM
< 50 | Cc1cc(Nc2cc(N3CCN(C4CCN(C)CC4)CC3)nc(Sc3ccc4nc(C(F)(F)F)n(C)c4c3)n2)[nH]n1 [Compound I-12] | 
< 50 | Cc1cc(Nc2cc(N3CCN(C4CCN(C)CC4)CC3)nc(Sc3cc(F)c4nc(C)ccc4c3)n2)[nH]n1 [Compound I-13, 2-(8-fluoro-2-methylquinolin-6-ylthio)-N-(3-methyl-1H-pyrazol-5-yl)-6-(4-(1-methylpiperidin-4-yl)piperazin-1-yl)pyrimidin-4-amine] | 
 | Cc1cc(Nc2cc(N3CCN(C(C)(C)C)CC3)nc(Sc3ccc4c(cnn4C)c3)n2)[nH]n1 [Compound I-16] | IC50 (Colo205 cells; [3]): < 50 nM
50 to 100 | Cc1cc(Nc2cc(N3CCN(C4CCN(C)CC4)CC3)nc(Sc3ccc4nc(C(F)(F)F)ccc4c3)n2)[nH]n1 [Compound I-17] | Ki [1]: < 25 nM
 | Cc1cc(Nc2cc(N3CCN(C(C)(C)C)CC3)nc(Sc3ccc4ncn(C)c4c3)n2)[nH]n1 [Compound I-18] | IC50 (Colo205 cells; [3]): < 50 nM
< 50 | Cc1cc(Nc2cc(N3CCN(C4CCCCC4)CC3)nc(Sc3ccc4nc(CC(F)(F)F)n(C)c4c3)n2)[nH]n1 [Compound I-19] | 
< 50 | Cc1cc(Nc2cc(N3CCN(C4CC4)CC3)nc(Sc3ccc4c(c3)CN(CC(F)(F)F)C4=O)n2)[nH]n1 [Compound I-20] | 
50 to 100 | Cc1cc(Nc2cc(N3CCN(CC(F)(F)F)CC3)nc(Sc3ccc4c(c3)CN(CC(F)(F)F)C4=O)n2)[nH]n1 [Compound I-24] | 
< 50 | Cc1cc(Nc2cc(N3CCN(C4CCCCC4)CC3)nc(Sc3ccc4c(c3)CN(CC(F)(F)F)C4=O)n2)[nH]n1 [Compound I-25] | 

Reference: patent US20130324725A1, “AMINOPYRIMIDINES USEFUL AS KINASE INHIBITORS” (VERTEX PHARMACEUTICALS INCORPORATED, priority 2007, published 2013)
